The source of these data is patent publication US20250304549A1, “HYDROXYAMIDE DERIVATIVE AND USE THEREOF” (SICHUAN HUIYU PHARMACEUTICAL CO., LTD., priority 2022, published 2025).

Where a name gives a salt, the structure may show the parent alone.

In one assay the target is pan-HDAC. As to the kind of experiment: In vitro enzyme inhibition assay - HDAC (HDAC-Glo I/II), pan-HDAC. It counts as biochemical. Here is the method: 2. In Vitro Enzyme Inhibition Assay—HDAC
The effect of the compound on the enzymatic activity of pan-HDAC and two isoforms (HDAC1 and HDAC8) was examined using the HDAC-Glo I/II Assay and Screening System assay to assess the level of inhibition of HDAC protease activity and selectivity in each isoform. The proteins and detection reagents were from the HDAC-Glo™ I/II Assay and Screening System (Promega). A 1 mM stock solution of the compound was prepared in DMSO and diluted in a 5-fold gradient to create a series of 8 concentrations, and a specific volume of the highest concentration was diluted 25 times with HDAC Buffer to obtain 4× working solution of the compound. […] The 384-well plate was then read on a multifunctional microplate reader, with the Luminescence channel selected to record Luminescence values (RLU). The inhibition rate was calculated using the following formula: […]
(§1) Note: ‘Negative’ refers to the group without the inhibitor; ‘Blank’ refers to the group without the enzyme.
(§2) The IC50 value was calculated by fitting the inhibition rate by GraphPad Prism software, employing log (inhibitor) vs. response-Variable Slope (four parameters) model.

The target in another assay is LSD1 (Homo sapiens (Human), UniProt O60341). As to the kind of experiment: In vitro enzyme inhibition assay - LSD1 (HTRF). It counts as biochemical. The method, then:
1. In Vitro Enzyme Inhibition Assay—LSD1
Initially, a master solution of 90 μM test compound (dissolved in DMSO) was prepared and sequentially diluted with DMSO in a 5-fold concentration gradient to yield a total of 9 concentrations of the compound working solution 1 (90×). Subsequently these 9 concentrations of working solution 1 were sequentially diluted by a 30-fold concentration gradient, i.e., 2 μL of working solution 1 was aspirated and added to 58 μL of Buffer, mixed on a vortex mixer with sufficient shaking to yield 9 concentrations of the screening test compound working solution 2 (3×). […] The mixture was incubated at room temperature for 15 minutes. […] Afterward, 2 μL of a termination solution (containing 5.4 mM 2-PCPA) was added to each well, mixed evenly, and incubated for another 15 minutes. Finally 4 μL of a pre-mixed antibody solution of Eu-anti H3K4 (PerkinElmer, TRF0404-D) and allophycocyanin (Prozyme, PJ27S) (1:1) was added to each well, mixed evenly, and incubated for 60 minutes. […] The inhibition rate was calculated through the following formula: […]
as §1, §2

The test system of another assay is NCI-H1417 cells. As to the kind of experiment: In vitro cell inhibition assay - H1417 cell proliferation (CellTiter-Glo). The class given is cell-based. Particulars: Homo sapiens, NCI-H1417, H1417 small cell lung cancer cell proliferation. The method, then:
3. In Vitro Cell Inhibition Assay—H1417 Cell Proliferation
The inhibitory effect of the compounds on cell proliferation was assessed by detecting the number of viable cells using the CellTiter-Glo® reagent. […] The compounds were sequentially diluted in a 5-fold concentration gradient with DMSO to obtain 8 different concentrations o. These were diluted with BEGM (containing 10% FBS) cell culture medium to obtain the compound working solution (2×), which was added to the cell supernatant at 100 μL per well. The incubation continued for 7 days at 37° C., 5% CO2. The plate was then removed and equilibrated to room temperature (25° C.) along with the CellTiter-Glo® mixing reagent for 10-30 minutes. After centrifugation, 100 μL of the culture medium was carefully aspirated from each well, and 85 μL of CellTiter-Glo® reagent was added. The cells were thoroughly mixed with the CellTiter-Glo® mixing reagent using a microplate shaker for 2 min. and then incubated at room temperature for 10 min. The 96-well plate was subsequently placed on a multifunctional microplate reader to record the Luminescence values (RLU). • The inhibition rate was calculated using the following formula: […]
(§3) Note: ‘Negative’ refers to the group without inhibitors; ‘Blank’ refers to the group without cells.
(§4) The IC50 value was determined by fitting the inhibition rate by GraphPad Prism software.

For the next assay, the system named is NCI-H69 cells. Kind of assay: In vitro cell inhibition assay - NCI-H69 cell proliferation (CellTiter-Glo). Conditions: Homo sapiens, NCI-H69, H69 small cell lung cancer cell proliferation. It counts as cell-based. The method, then:
4. In Vitro Cell Inhibition Assay—NCI-H69 Cell Proliferation
The inhibitory effect of the compounds on cell proliferation was assessed by detecting the number of viable cells using the CellTiter-Glo® reagent. NCI-H69 cells in the logarithmic growth phase were collected and inoculated into transparent bottom 96-well plates at a density 1×10^3 cells per well with 100 μL medium, and incubated at 37° C., 5% CO2 overnight. The compounds were sequentially diluted in a 5-fold concentration gradient with DMSO to obtain 8 different concentrations These were then diluted with RPMI-640 (containing 20% FBS) cell culture medium to obtain the compounds working solution (2×), which was added to the cell supernatant at 100 μL per well. The incubation continued for 7 days at 37° C., 5% CO2. The plate was then removed and equilibrated to room temperature (25° C.) along with the CellTiter-Glo® mixing reagent for 10-30 minutes. After centrifugation at 1200 rpm for 5 minutes, 120 μL of the culture medium was carefully aspirated from each well, and 60 μL of CellTiter-Glo® reagent was added. The cells were thoroughly mixed with the CellTiter-Glo® mixing reagent using a microplate shaker for 2 min. and then incubated at room temperature for 10 min. The 96-well plate was subsequently placed on a multifunctional microplate reader to record the Luminescence values (RLU).
The inhibition rate was calculated using the following formula: […]
as §3, §4

Regarding `COc1ccc(-c2c(OCCCCCCC(=O)NO)cc(N3CCC(N)CC3)nc2-c2ccc(C#N)c(F)c2)cc1F` [Example 3, 7-(6-(4-Aminopiperidin-1-yl)-2-(4-cyano-3-fluorophenyl)-3-(3-fluoro-4-methoxyphenyl)pyridin-4-yl)oxy-N-hydroxyheptanamide hydrochloride], the IC50 against pan-HDAC worked out at 29 nM; on LSD1 it was 13.7 nM; in the assay on NCI-H1417 cells, 226 nM.

For `CS(=O)(=O)c1ccc(-c2c(OCCCCCCC(=O)NO)cc(N3CCC(N)CC3)nc2-c2ccc(C#N)c(F)c2)cc1` [Example 4, 7-(6-(4-Aminopiperidin-1-yl)-2-(4-cyano-3-fluorophenyl)-3-(4-(methylsulfonyl)phenyl)pyridin-4-yl)oxy)-N-hydroxyheptanamide hydrochloride], the IC50 on pan-HDAC was 12 nM; against LSD1, 11.9 nM; in the assay on NCI-H1417 cells, 209 nM.

In the case of `N#Cc1ccc(-c2nc(N3CCC(N)CC3)cc(OCCCCCCC(=O)NO)c2-c2ccc(N)cc2)cc1F` [Example 5, 7-(3-(4-Aminophenyl)-6-(4-aminopiperidin-1-yl)-2-(4-cyano-3-fluorophenyl)pyridin-4-yl)oxy)-N-hydroxyheptanamide hydrochloride], the figures for the IC50 against pan-HDAC and in the assay on NCI-H1417 cells were 15 nM and 128 nM, respectively.

Consider `N#Cc1ccc(-c2nc(N3CCC(N)CC3)cc(OCCCCCCC(=O)NO)c2-c2ccc(F)c(F)c2)cc1F` [Example 6, 7-(6-(4-Aminopiperidin-1-yl)-2-(4-cyano-3-fluorophenyl)-3-(3,4-difluorophenyl)pyridin-4-yl)oxy)-N-hydroxyheptanamide hydrochloride], for which the IC50 stood at 134 nM against pan-HDAC and 254 nM on LSD1.

As for `Cc1cc(-c2c(OCCCCCCC(=O)NO)cc(N3CCC(N)CC3)nc2-c2ccc(C#N)c(F)c2)ccn1` [Example 10, 7-((6-(4-Aminopiperidin-1-yl)-2-(4-cyano-3-fluorophenyl)-2′-methyl-[3,4′-bipyridin]-4-yl)oxy)-N-hydroxyheptanamide hydrochloride], the IC50 at pan-HDAC amounted to 39 nM; on LSD1, 75.4 nM.

On to `COc1ccc(-c2c(OCCCCCCC(=O)NO)cc(N3CCC(N)CC3)nc2-c2ccc(C#N)cc2)cc1O` [Example 12, 7-((6-(4-Aminopiperidin-1-yl)-2-(4-cyanophenyl)-3-(3-hydroxy-4-methoxyphenyl)pyridin-4-yl)oxy)-N-hydroxyheptanamide], for which the figures for the IC50 against pan-HDAC and against LSD1 were 7.31 nM and 0.92 nM, respectively.

In the case of `Cc1nc(N2CCC(N)CC2)c(C#N)c(-c2ccc(C#N)c(F)c2)c1-c1ccc(OCCCCCCC(=O)NO)c(O)c1` [Example 26, 7-(4-(6-(4-Aminopiperidin-1-yl)-5-cyano-4-(4-cyano-3-fluorophenyl)-2-methylpyridin-3-yl)-2-hydroxyphenoxy)-N-hydroxyheptanamide hydrochloride], the IC50 against pan-HDAC is 35 nM; against LSD1, 0.12 nM; with NCI-H1417 cells it was 152 nM.

As for `COc1ccc(-c2c(-c3ccc(C#N)c(F)c3)nc(N3CCC(NCCCCCCC(=O)NO)CC3)n3ccnc23)cc1O` [Example 35, 7-((1-(7-(4-Cyano-3-fluorophenyl)-8-(3-hydroxy-4-methoxy-phenyl)imidazo[1,2-c]pyrimidin-5-yl)piperidin-4-yl)amino)-N-hydroxy-heptanamide hydrochloride], the IC50 was 266 nM against pan-HDAC, 4.63 nM on LSD1 and 188 nM in the assay on NCI-H1417 cells.

Take `N#Cc1ccc(-c2nc(N3CCC(N)CC3)n3ccnc3c2-c2ccc(NC(=O)CCCCCCC(=O)NO)c(O)c2)cc1F` [Example 57, N^1-(4-(5-(4-aminopiperidin-1-yl)-7-(4-cyano-3-fluorophenyl)imidazo[1,2-c]pyrimidin-8-yl)-2-hydroxyphenyl)-N^8-hydroxyoctanediamine diformate]: the IC50 came to 72 nM against pan-HDAC, 0.26 nM at LSD1 and 14.5 nM in the assay with NCI-H1417 cells.

Consider `COc1ccc(-c2cnc(N3CCC(NCc4ccc(C5=C(C(=O)NO)CCC5)cc4)CC3)c(C#N)c2-c2ccc(C#N)c(F)c2)cc1O` [Example 163, 2-(4-(((1-(3-Cyano-4-(4-cyano-3-fluorophenyl)-5-(3-hydroxy-4-methoxyphenyl)pyridin-2-yl)piperidin-4-yl)amino)methyl)phenyl)-N-hydroxycyclopent-1-ene-1-carboxamide formate], for which the IC50 with NCI-H69 cells turned out to be 1400 nM; in the assay with NCI-H1417 cells, 4.97 nM.

Turning to `COc1ccc(-c2cnc(N3CCC(NCc4ccc(C5CC5C(=O)NO)cc4)CC3)c(C#N)c2-c2ccc(C#N)c(F)c2)cc1O` (stereo not shown) [Example 167, 2-(4-((1-(3-Cyano-4-(4-cyano-3-fluorophenyl)-5-(3-hydroxy-4-methoxyphenyl)pyridin-2-yl)piperidin-4-yl)amino)methyl) phenyl)-N-hydroxycyclopropane-1-carboxamide formate], the IC50 with NCI-H69 cells was 381 nM; against LSD1 it was 0.37 nM; in the assay with NCI-H1417 cells, 0.39 nM.

Regarding `COc1ccc(-c2cnc(N3CCC(NCc4ccc(/C=C/CC(=O)NO)cc4)CC3)c(C#N)c2-c2ccc(C#N)c(F)c2)cc1O` [Example 169, (E)-4-(4-(((1-(3-Cyano-4-(4-cyano-3-fluorophenyl)-5-(3-hydroxy-4-methoxyphenyl)pyridin-2-yl)piperidin-4-yl)amino)methyl)phenyl)-N-hydroxybut-3-enamide formate], the half-inhibitory concentration (IC50) with NCI-H69 cells was determined as 310 nM; in the assay on NCI-H1417 cells it was 2.33 nM.

As for `COc1ccc(-c2cnc(N3CCC(NCc4ccc(/C=C(\C)C(=O)NO)cc4)CC3)c(C#N)c2-c2ccc(C#N)c(F)c2)cc1O` [Example 172, (E)-3-(4-(((1-(3-Cyano-4-(4-cyano-3-fluorophenyl)-5-(3-hydroxy-4-methoxyphenyl)pyridin-2-yl)piperidin-4-yl)amino)methyl)phenyl)-N-hydroxy-2-methylacrylamide formate], the IC50 with NCI-H69 cells was found to be 1280 nM; on LSD1, 0.74 nM; in the assay on NCI-H1417 cells, 1.71 nM.

Consider `COc1ccc(-c2cnc(N3CCC(NCc4ccc(OCC(=O)NO)nc4)CC3)c(C#N)c2-c2ccc(C#N)c(F)c2)cc1O` [Example 174, 2-((5-(((1-(3-Cyano-4-(4-cyano-3-fluorophenyl)-5-(3-hydroxy-4-methoxyphenyl)pyridin-2-yl)piperidin-4-yl)amino)methyl)pyridin-2-yl)oxy)-N-hydroxyacetamide formate], for which the 50% inhibitory concentration (IC50) was found to be 4170 nM in the assay on NCI-H69 cells and 8.67 nM in the assay with NCI-H1417 cells.

Regarding `O=C(/C=C/c1ccc(CNC(=O)c2cc(CN[C@@H]3C[C@H]3c3ccc(F)cc3)nc(-c3ccc(-n4cccn4)cc3)n2)cc1)NO` [Example 232, 2-(4-(1H-pyrazol-1-yl)phenyl)-6-((((1R,2S)-2-(4-fluorophenyl)cyclopropyl)amino)methyl)-N-(4-((E)-3-(hydroxyamino)-3-oxoprop-1-en-1-yl)benzyl)pyrimidine-4-carboxamide formate], the IC50 with NCI-H69 cells is 160 nM; with NCI-H1417 cells, 32.1 nM.
